“Also recorded” adds a separate entry of the source. Where two headings read alike, the source gives them in different places.
How the values were obtained:
PAC1-R [1] = molecular target: T1, PAC1-R (Homo sapiens, UniProt P41586); assay: Binding of 125I-PACAP27 to PAC1-R stably transfected NIH 3T3 cells
T1 sequence (P41586 21-468): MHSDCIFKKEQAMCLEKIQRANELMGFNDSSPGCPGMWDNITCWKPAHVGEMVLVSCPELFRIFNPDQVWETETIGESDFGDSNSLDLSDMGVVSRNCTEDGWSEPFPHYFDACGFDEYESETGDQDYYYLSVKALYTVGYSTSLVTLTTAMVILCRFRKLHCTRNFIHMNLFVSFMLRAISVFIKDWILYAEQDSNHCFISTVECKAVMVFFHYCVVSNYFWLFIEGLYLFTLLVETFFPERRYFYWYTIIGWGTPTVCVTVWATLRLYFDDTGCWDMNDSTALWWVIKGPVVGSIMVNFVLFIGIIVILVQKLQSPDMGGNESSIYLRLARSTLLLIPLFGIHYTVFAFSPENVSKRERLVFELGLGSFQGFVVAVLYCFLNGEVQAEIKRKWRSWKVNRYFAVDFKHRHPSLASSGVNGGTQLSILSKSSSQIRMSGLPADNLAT

VPAC1-R [2] = molecular target: T2, VPAC1-R (Homo sapiens, UniProt P32241); assay: Binding of 125I-VIP to VPAC1-R/PANC-1 cells
T2 sequence (P32241 31-457): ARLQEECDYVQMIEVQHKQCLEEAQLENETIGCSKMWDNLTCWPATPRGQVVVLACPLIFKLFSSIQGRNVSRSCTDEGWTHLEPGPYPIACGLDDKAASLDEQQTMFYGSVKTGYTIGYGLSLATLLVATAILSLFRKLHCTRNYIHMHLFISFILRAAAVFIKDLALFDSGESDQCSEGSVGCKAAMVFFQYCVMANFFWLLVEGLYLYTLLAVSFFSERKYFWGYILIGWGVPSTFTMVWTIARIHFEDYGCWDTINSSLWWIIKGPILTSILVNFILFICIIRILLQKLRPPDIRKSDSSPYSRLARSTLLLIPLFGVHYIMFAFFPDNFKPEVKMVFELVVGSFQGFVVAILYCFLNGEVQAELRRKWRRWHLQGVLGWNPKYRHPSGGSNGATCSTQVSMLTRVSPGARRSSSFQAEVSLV

VPAC2-R [3] = molecular target: T3, VPAC2-R (Homo sapiens, UniProt P41587); assay: Binding of 125I-PACAP27 to VPAC2-R/PANC-1 cells; details: ratio of binding IC50, analog vs native parent peptide
T3 sequence (P41587 24-438): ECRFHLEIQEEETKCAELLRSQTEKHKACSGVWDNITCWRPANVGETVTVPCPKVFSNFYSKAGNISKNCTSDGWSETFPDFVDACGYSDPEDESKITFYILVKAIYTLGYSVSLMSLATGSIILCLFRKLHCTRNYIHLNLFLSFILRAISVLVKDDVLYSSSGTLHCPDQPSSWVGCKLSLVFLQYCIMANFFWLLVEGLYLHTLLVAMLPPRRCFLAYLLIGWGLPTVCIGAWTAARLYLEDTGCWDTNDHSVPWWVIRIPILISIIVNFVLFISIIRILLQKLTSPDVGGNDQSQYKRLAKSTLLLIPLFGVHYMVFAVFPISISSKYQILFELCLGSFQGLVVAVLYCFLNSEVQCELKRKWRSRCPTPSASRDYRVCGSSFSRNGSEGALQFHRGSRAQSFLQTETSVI

PAC1-R [4] = molecular target: T1, PAC1-R; assay: [3H]cAMP generation in PAC1-R cells; type: cell-based
VPAC1-R [5] = molecular target: T2, VPAC1-R; assay: [3H]cAMP generation in VPAC1-R/PANC-1 cells; type: cell-based
VPAC2-R [6] = molecular target: T3, VPAC2-R; assay: [3H]cAMP generation in VPAC2-R/PANC-1 cells; type: cell-based; details: for [3H]cAMP VPAC2-R/PANC-1 % max (agonist class): VPAC2-R/PANC-1 cells, relative to PACAP38, up to 1 µM
VPAC1-R [7] = molecular target: T2, VPAC1-R; assay: [3H]cAMP generation in T47D cells; type: cell-based

Row | Substance | decrease in affinity for VPAC2-R/PANC-1 cells compared to native PACAP38 (or PACAP27, VIP) (VPAC2-R [3]) | [3H]cAMP VPAC2-R/PANC-1 % max (agonist class) (VPAC2-R [6]) | other results
1 | [D-Ser^2]PACAP38 [Peptide P16] | 15–500 fold |  | decrease in affinity for PAC1-R cells compared to native PACAP38 (or PACAP27) (PAC1-R [1]): 11–30 fold; decrease in affinity for VPAC1-R/PANC-1 cells compared to native PACAP38 (or PACAP27, VIP) (VPAC1-R [2]): 100–500 fold; higher potency for PAC1-R cells compared to VPAC1-R/PANC-1 cells (PAC1-R [4]): 2-to-5 fold; higher potency for PAC1-R cells compared to VPAC2-R/PANC-1 cells (PAC1-R [4]): 12–140 fold
2 | PACAP27 [reference compound] |  |  | decrease in affinity for PAC1-R cells compared to native PACAP38 (or PACAP27) (PAC1-R [1]): 10 fold; higher affinity (selectivity) for PAC1-R cells over VPAC2-R/PANC-1 cells (PAC1-R [1]): 2 fold; lower affinity for PAC1-R cells than VPAC1-R/PANC-1 cells (PAC1-R [1]): 12 fold; higher affinity than PACAP38 for VPAC1-R/PANC-1 cells (VPAC1-R [2]; binding IC50 ratio): 6 fold; coupling ratio (IC50-binding affinity/EC50-cAMP generation), PAC1-R cells (PAC1-R [4]): 94 fold; maximal increase in cAMP, PAC1-R cells (PAC1-R [4]): 4.1 ± 1.5 fold; coupling ratio (IC50-binding affinity/EC50-cAMP generation), VPAC1-R/PANC-1 cells (VPAC1-R [5]): 1.2 fold; maximal increase in cAMP, VPAC1-R/PANC-1 cells (VPAC1-R [5]; over control): 5.0 ± 0.7 fold; coupling ratio (IC50-binding affinity/EC50-cAMP generation), VPAC2-R/PANC-1 cells (VPAC2-R [6]): 4.8 fold; maximal increase in cAMP, VPAC2-R/PANC-1 cells (VPAC2-R [6]; over control): 6.5 ± 2.0 fold
3 | [Aib^2]PACAP38 [Peptide P15] |  |  | decrease in affinity for PAC1-R cells compared to native PACAP38 (or PACAP27) (PAC1-R [1]): 11–30 fold; lower affinity for PAC1-R cells than VPAC2-R/PANC-1 cells (PAC1-R [1]): 2–9 fold
4 | [Hyp^3,Ala^16,17]PACAP38 [Peptide P20] | 50–400 fold | Ag (1 µM, 35) | 
5 | [Aib^16,Ala^17,Lys^34]PACAP38 [Peptide P30] | 2-to-6 fold |  | 
6 | [Sar^3]PACAP27 [Peptide P6] | 6–132 fold | no agonist activity; also recorded: No Act | decrease in affinity for VPAC1-R/PANC-1 cells compared to native PACAP38 (or PACAP27, VIP) (VPAC1-R [2]; ratio of binding IC50, analog vs native parent peptide): 100–500 fold; [3H]cAMP T47D % max, agonist activity at 1 µM, still increasing (VPAC1-R [7]; at 1 µM): Ag (1 µM, 69) % max; [3H]cAMP T47D % max (agonist class) (VPAC1-R [7]; relative to PACAP38, up to 1 µM): Ag (1 µM, 69)
7 | [N-Ac-His^1,Ala^16,17,D-Lys^38]PACAP38 [Peptide P28] | 2-to-6 fold |  | 
8 | [Aib^16,28,Ala^17,Lys^34,D-Lys^38]PACAP38 [Peptide P34] | 2-to-6 fold |  | 
9 | [Pip^3]PACAP38 [Peptide P26] | 15–500 fold | no agonist activity; also recorded: No Act | 
10 | [Hyp^3,Aib^16,Ala^17,Lys^34]PACAP38 [Peptide P31] | 50–400 fold |  | 
11 | [β-Ala^3,Ala^16,17]PACAP38 [Peptide P21] | 50–400 fold | no agonist activity; also recorded: No Act | 
12 | [Iaa^1,D-Tyr^2,Ala^22]PACAP38 [Peptide P49] | 50–400 fold |  | 
13 | [Ala^16,17,D-Lys^38]PACAP38 [Peptide P23] | 2-to-6 fold |  | 
14 | [Pip^3,Aib^16,28,Ala^17,Lys^34,D-Lys^38]PACAP38 [Peptide P35] | 50–400 fold | Ag (1 µM, 33) | 
15 | [Pro^3]PACAP38 [Peptide P18] | 15–500 fold | Ag (1 µM, 26) | 
16 | [N-Ac-His^1,Pip^3]PACAP38 [Peptide P27] | 15–500 fold | Ag (1 µM, 18) | 
